Test results published in patent publication US8497245B2, “Trypsin-like serine protease inhibitors, their preparation and use as selective inhibitors of the clotting factors IIa and Xa” (The Medicines Company (Leipzig) GmbH, priority 2010, dated 2013).
Structures can show the parent of a compound that is named as a salt.

target: T1, Subcomponent "s" of Human Complement Component 1 (h C1s) (Homo sapiens, UniProt P09871); assay: Inhibition of human C1s (reference enzyme); assay type: biochemical; details: S-2314 substrate; read-out: Ki h Cls
T1 construct: purchased Calbiochem
T1 sequence (P09871 438-688 limits assumed): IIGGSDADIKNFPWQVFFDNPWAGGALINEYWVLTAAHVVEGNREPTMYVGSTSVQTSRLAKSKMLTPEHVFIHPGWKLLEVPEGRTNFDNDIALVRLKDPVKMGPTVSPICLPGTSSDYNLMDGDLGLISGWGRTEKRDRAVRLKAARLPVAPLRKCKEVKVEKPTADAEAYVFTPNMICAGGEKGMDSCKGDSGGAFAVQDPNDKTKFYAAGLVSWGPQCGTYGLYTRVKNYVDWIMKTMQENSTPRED
T1 sequence (P09871 16-437 partner limits assumed): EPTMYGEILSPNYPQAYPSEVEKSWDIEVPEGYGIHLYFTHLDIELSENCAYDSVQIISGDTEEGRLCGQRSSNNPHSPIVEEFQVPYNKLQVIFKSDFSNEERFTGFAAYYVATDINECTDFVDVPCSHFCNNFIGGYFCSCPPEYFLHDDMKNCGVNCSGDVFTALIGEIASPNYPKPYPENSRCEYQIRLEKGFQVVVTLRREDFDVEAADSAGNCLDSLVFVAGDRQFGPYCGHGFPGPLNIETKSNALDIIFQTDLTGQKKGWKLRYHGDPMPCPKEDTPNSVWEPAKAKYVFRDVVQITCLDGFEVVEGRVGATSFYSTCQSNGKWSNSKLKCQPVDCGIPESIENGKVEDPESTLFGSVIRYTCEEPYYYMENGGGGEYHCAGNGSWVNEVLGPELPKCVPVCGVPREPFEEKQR
Protocol: (§1) The inhibitory effect against the individual purified enzymes was determined in analogy to a previously disclosed method (Stürzebecher et al., J. Med. Chem., 40, 3091-3099 (1997)).
(§2) The release of p-nitroaniline (p-NA, the chromogenic product of the proteolytic activity), was determined by change in absorbance at 405 nm. The equilibrium rates were used to calculate the inhibitor/enzyme dissociation constant (Ki values) by parameter fitting in accordance with the rate equation for competitive inhibition using GraFit (version 4 from Erithacus). The results are reported as Ki values (nanomolar) in table 7 and are the average of at least three determinations.
(§3) Dissociation constants were calculated as described herein.

Ki [µM] | SMILES
> 100 | NCc1ccc(Cl)cc1CNC(=O)[C@@H]1CCCN1C(=O)[C@@H](CCC(=O)N1CCOCC1)NC(=O)Cc1ccccc1 [Compound 2.42]
> 80 | NCc1ccc(Cl)cc1CNC(=O)[C@@H]1CCCN1C(=O)[C@@H](CCC(=O)N1CCOCC1)NS(=O)(=O)Cc1ccccc1 [Compound 2.1, Bzls-D-Glu(morpholino)-L-Pro-Amb(2-AMe-5-Cl)×1 TFA]

target: T2, Human plasmin (h plasmin) (Homo sapiens, UniProt P00747); assay: Inhibition of human plasmin (reference enzyme); assay type: biochemical; details: Chromozym PL substrate
T2 construct: purchased Calbiochem
Protocol: as §1, §2, §3

T2 sequence (P00747 581-810 limits assumed): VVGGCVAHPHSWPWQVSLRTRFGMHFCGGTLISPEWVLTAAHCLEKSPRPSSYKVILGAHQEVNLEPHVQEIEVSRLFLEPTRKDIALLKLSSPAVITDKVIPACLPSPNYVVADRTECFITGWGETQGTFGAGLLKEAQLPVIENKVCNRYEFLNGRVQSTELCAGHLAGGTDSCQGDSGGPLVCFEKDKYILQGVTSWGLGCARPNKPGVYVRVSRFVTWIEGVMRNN
T2 sequence (P00747 97-580 partner limits assumed): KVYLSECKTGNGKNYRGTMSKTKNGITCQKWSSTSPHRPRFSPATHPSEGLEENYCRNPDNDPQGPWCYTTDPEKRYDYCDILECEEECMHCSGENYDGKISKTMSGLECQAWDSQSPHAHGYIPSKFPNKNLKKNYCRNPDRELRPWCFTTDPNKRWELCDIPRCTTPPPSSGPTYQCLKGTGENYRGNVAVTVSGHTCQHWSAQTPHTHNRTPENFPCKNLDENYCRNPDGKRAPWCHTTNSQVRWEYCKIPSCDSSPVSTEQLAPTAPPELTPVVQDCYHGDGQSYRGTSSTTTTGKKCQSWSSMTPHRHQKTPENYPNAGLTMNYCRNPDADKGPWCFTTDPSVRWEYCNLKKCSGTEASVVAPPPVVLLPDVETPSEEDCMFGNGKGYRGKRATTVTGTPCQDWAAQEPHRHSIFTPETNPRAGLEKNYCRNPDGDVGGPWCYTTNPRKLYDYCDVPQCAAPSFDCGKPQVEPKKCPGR

Ki [µM] | SMILES
> 50 | NCc1ccc(Cl)cc1CNC(=O)[C@@H]1CCCN1C(=O)[C@@H](CCC(=O)N1CCOCC1)NC(=O)Cc1ccccc1 [Compound 2.42]
> 28 | NCc1ccc(Cl)cc1CNC(=O)[C@@H]1CCCN1C(=O)[C@@H](CCC(=O)N1CCOCC1)NS(=O)(=O)Cc1ccccc1 [Compound 2.1, Bzls-D-Glu(morpholino)-L-Pro-Amb(2-AMe-5-Cl)×1 TFA]

target: T3, Human urokinase type plasminogen activator (h u-PA) (Homo sapiens, UniProt P00749); assay: Inhibition of human urokinase type plasminogen activator (reference enzyme); assay type: biochemical; details: H-Glu-Gly-Arg-pNA substrate
T3 construct: purchased MEDAC GmbH Urokinase HS medac
Protocol: as §1, §2, §3

Ki [µM] | SMILES
> 100 | NCc1ccc(Cl)cc1CNC(=O)[C@@H]1CCCN1C(=O)[C@@H](CCC(=O)N1CCOCC1)NC(=O)Cc1ccccc1 [Compound 2.42]
> 40 | NCc1ccc(Cl)cc1CNC(=O)[C@@H]1CCCN1C(=O)[C@@H](CCC(=O)N1CCOCC1)NS(=O)(=O)Cc1ccccc1 [Compound 2.1, Bzls-D-Glu(morpholino)-L-Pro-Amb(2-AMe-5-Cl)×1 TFA]

target: T4, Human tissue-type plasminogen activator (h t-PA) (Homo sapiens, UniProt P00750); assay: Inhibition of human tissue-type plasminogen activator (reference enzyme); assay type: biochemical; details: Pefachrome tPA substrate; read-out: Ki h t-PA
T4 construct: purchased Boehringer Ingelheim Actilyse
Protocol: The equilibrium rates were used to calculate the inhibitor/enzyme dissociation constant (Ki values) by parameter fitting in accordance with the rate equation for competitive inhibition using GraFit (version 4 from Erithacus).
as §3

T4 sequence (P00750 36-562): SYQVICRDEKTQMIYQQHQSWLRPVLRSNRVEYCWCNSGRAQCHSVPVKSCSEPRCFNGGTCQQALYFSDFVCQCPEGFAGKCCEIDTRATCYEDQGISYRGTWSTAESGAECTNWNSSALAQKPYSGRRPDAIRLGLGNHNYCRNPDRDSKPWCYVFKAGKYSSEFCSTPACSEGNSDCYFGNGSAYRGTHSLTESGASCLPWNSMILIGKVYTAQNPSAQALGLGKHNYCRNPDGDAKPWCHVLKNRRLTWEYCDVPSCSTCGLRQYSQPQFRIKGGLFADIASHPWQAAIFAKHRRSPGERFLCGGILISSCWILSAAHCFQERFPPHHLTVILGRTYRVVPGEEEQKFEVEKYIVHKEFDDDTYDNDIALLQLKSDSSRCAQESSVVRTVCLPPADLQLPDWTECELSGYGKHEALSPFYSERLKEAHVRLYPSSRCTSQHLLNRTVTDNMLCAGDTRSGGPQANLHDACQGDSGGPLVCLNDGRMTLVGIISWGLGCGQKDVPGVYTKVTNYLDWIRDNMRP

Ki [µM] | SMILES
> 50 | NCc1ccc(Cl)cc1CNC(=O)[C@@H]1CCCN1C(=O)[C@@H](CCC(=O)N1CCOCC1)NC(=O)Cc1ccccc1 [Compound 2.42]
> 20 | NCc1ccc(Cl)cc1CNC(=O)[C@@H]1CCCN1C(=O)[C@@H](CCC(=O)N1CCOCC1)NS(=O)(=O)Cc1ccccc1 [Compound 2.1, Bzls-D-Glu(morpholino)-L-Pro-Amb(2-AMe-5-Cl)×1 TFA]

target: T5, Subcomponent "r" of Human Complement Component 1 (h C1r) (Homo sapiens, UniProt P00736); assay: Inhibition of human C1r (reference enzyme); assay type: biochemical; details: S-2314 substrate; read-out: Ki h Clr
T5 construct: purchased Calbiochem
T5 sequence (P00736 464-705 limits assumed): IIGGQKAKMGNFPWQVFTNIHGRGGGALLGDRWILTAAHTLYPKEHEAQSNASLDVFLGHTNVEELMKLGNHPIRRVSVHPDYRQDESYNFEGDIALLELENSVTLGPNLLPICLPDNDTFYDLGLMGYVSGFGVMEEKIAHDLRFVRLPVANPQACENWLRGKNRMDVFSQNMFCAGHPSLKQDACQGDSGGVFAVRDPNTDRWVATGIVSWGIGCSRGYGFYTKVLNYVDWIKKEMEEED
T5 sequence (P00736 18-463 partner limits assumed): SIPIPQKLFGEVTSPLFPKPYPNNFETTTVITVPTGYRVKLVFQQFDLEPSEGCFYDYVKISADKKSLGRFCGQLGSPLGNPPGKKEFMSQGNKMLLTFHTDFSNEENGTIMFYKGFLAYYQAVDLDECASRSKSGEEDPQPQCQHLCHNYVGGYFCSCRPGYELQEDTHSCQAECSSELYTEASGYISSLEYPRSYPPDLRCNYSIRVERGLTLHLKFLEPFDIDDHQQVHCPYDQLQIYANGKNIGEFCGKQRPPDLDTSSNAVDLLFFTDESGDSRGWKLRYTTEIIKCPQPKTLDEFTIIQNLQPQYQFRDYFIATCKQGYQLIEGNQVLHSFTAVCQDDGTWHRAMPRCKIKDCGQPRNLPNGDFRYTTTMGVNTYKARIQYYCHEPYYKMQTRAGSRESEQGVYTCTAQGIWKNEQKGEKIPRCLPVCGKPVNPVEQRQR
Protocol: as §1, §2, §3

Ki [µM] | SMILES
> 20 | NCc1ccc(Cl)cc1CNC(=O)[C@@H]1CCCN1C(=O)[C@@H](CCC(=O)N1CCOCC1)NC(=O)Cc1ccccc1 [Compound 2.42]
> 200 | NCc1ccc(Cl)cc1CNC(=O)[C@@H]1CCCN1C(=O)[C@@H](CCC(=O)N1CCOCC1)NS(=O)(=O)Cc1ccccc1 [Compound 2.1, Bzls-D-Glu(morpholino)-L-Pro-Amb(2-AMe-5-Cl)×1 TFA]

target: T6, human factor IIa (human alpha-thrombin) (Homo sapiens, UniProt P00734); assay: Inhibition constants for human factor IIa, chromogenic substrate assay; assay type: biochemical; details: 25° C., Pefachrome tPA substrate, average of at least three determinations; read-out: Ki h FIIa
T6 construct: human alpha-thrombin from Enzyme Research Laboratories; purchased Enzyme Research Laboratories
Protocol: as §1
(§4) 200 μL of TBS (0.05 M trishydroxymethylaminomethane; 0.154 M NaCl, 2% ethanol, pH 8.0)
as §2

Ki [µM] | SMILES
0.088 | NCc1ccc(Cl)cc1CNC(=O)[C@@H]1CCCN1C(=O)[C@@H](CCC(=O)N1CCOCC1)NC(=O)Cc1ccccc1 [Compound 2.42]
0.00043 | NCc1ccc(Cl)cc1CNC(=O)[C@@H]1CCCN1C(=O)[C@@H](CCC(=O)N1CCOCC1)NS(=O)(=O)Cc1ccccc1 [Compound 2.1, Bzls-D-Glu(morpholino)-L-Pro-Amb(2-AMe-5-Cl)×1 TFA]

target: T7, Human Activated Protein C (h aPC) (Homo sapiens, UniProt P04070); assay: Inhibition of human activated protein C (reference enzyme); assay type: biochemical; details: Pefachrome PCa substrate
T7 construct: purchased Enzyme Research Laboratories
Protocol: as §1, §2, §3

T7 sequence (P04070 212-450 limits assumed): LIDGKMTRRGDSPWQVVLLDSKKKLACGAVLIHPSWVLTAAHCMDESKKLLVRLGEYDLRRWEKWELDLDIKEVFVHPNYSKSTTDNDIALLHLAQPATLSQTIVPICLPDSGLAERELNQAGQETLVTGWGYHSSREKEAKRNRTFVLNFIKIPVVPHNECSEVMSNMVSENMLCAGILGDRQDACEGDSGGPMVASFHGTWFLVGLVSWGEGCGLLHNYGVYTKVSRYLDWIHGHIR
T7 sequence (P04070 43-197 partner limits assumed): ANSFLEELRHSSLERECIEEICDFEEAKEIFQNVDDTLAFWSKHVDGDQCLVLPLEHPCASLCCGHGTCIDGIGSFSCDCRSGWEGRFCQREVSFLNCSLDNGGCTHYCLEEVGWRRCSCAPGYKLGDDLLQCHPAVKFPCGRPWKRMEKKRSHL

Ki [µM] | SMILES
> 10 | NCc1ccc(Cl)cc1CNC(=O)[C@@H]1CCCN1C(=O)[C@@H](CCC(=O)N1CCOCC1)NC(=O)Cc1ccccc1 [Compound 2.42]
> 100 | NCc1ccc(Cl)cc1CNC(=O)[C@@H]1CCCN1C(=O)[C@@H](CCC(=O)N1CCOCC1)NS(=O)(=O)Cc1ccccc1 [Compound 2.1, Bzls-D-Glu(morpholino)-L-Pro-Amb(2-AMe-5-Cl)×1 TFA]

target: T8, Human plasma kallikrein (h PK) (Homo sapiens, UniProt P03952); assay: Inhibition of human plasma kallikrein (reference enzyme); assay type: biochemical; details: S2302 substrate
T8 construct: purchased Enzyme Research Laboratories
Protocol: as §1, §2, §3

T8 sequence (P03952 391-638 limits assumed): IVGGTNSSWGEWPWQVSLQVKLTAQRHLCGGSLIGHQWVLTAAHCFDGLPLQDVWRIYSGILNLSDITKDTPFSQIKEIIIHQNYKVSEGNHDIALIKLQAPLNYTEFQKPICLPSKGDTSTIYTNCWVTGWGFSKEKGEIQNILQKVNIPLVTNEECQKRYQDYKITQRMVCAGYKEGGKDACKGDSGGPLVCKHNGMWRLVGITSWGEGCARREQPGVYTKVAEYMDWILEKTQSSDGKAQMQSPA
T8 sequence (P03952 20-390 partner limits assumed): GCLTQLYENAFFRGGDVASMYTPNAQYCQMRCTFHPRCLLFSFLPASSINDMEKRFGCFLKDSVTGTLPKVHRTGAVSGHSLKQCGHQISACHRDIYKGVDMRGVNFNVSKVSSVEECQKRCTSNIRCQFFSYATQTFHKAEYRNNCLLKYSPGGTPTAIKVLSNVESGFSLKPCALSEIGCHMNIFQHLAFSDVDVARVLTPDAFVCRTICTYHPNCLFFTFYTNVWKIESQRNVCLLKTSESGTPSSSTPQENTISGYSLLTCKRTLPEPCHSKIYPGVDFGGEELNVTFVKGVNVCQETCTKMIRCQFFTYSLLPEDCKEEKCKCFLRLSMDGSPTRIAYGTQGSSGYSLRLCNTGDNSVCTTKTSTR

Ki [µM] | SMILES
> 50 | NCc1ccc(Cl)cc1CNC(=O)[C@@H]1CCCN1C(=O)[C@@H](CCC(=O)N1CCOCC1)NC(=O)Cc1ccccc1 [Compound 2.42]
1.86 | NCc1ccc(Cl)cc1CNC(=O)[C@@H]1CCCN1C(=O)[C@@H](CCC(=O)N1CCOCC1)NS(=O)(=O)Cc1ccccc1 [Compound 2.1, Bzls-D-Glu(morpholino)-L-Pro-Amb(2-AMe-5-Cl)×1 TFA]

target: T9, Human urinary kallikrein (h uKK) (Homo sapiens, UniProt P06870); assay: Inhibition of human urinary kallikrein (reference enzyme); assay type: biochemical; details: S-2266 substrate
T9 construct: purchased Lee Biosolutions
Protocol: as §1, §2, §3

T9 sequence (P06870 25-262): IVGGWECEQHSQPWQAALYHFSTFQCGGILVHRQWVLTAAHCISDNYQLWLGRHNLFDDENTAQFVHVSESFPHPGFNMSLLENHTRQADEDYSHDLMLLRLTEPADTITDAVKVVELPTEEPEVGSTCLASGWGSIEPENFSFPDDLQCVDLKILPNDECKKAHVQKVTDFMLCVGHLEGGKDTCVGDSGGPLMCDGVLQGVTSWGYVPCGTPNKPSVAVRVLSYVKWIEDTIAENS

Ki [µM] | SMILES
> 20 | NCc1ccc(Cl)cc1CNC(=O)[C@@H]1CCCN1C(=O)[C@@H](CCC(=O)N1CCOCC1)NC(=O)Cc1ccccc1 [Compound 2.42]
> 60 | NCc1ccc(Cl)cc1CNC(=O)[C@@H]1CCCN1C(=O)[C@@H](CCC(=O)N1CCOCC1)NS(=O)(=O)Cc1ccccc1 [Compound 2.1, Bzls-D-Glu(morpholino)-L-Pro-Amb(2-AMe-5-Cl)×1 TFA]

target: T10, human Factor Xa (Homo sapiens, UniProt P00742); assay: Inhibition constants for human factor Xa, chromogenic substrate assay; assay type: biochemical; details: 25° C., Pefachrome FXa substrate, average of at least three determinations; read-out: Ki h FXa
T10 construct: human Factor Xa from Enzyme Research Laboratories; purchased Enzyme Research Laboratories
Protocol: as §1, §4, §2

T10 sequence (P00742 235-488 limits assumed): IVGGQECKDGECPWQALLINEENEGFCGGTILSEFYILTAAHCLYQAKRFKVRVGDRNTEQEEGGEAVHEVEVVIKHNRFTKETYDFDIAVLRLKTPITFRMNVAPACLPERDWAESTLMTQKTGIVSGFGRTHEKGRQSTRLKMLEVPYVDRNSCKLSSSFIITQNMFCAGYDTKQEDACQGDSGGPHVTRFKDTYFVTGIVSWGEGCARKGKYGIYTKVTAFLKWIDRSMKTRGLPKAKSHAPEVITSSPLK
T10 sequence (P00742 41-179 partner limits assumed): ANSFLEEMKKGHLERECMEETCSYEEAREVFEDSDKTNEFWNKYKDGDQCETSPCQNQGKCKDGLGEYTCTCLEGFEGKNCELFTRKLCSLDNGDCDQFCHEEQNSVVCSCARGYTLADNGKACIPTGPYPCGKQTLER

Ki [µM] | SMILES
0.965 | NCc1ccc(Cl)cc1CNC(=O)[C@@H]1CCCN1C(=O)[C@@H](CCC(=O)N1CCOCC1)NC(=O)Cc1ccccc1 [Compound 2.42]
0.0011 | NCc1ccc(Cl)cc1CNC(=O)[C@@H]1CCCN1C(=O)[C@@H](CCC(=O)N1CCOCC1)NS(=O)(=O)Cc1ccccc1 [Compound 2.1, Bzls-D-Glu(morpholino)-L-Pro-Amb(2-AMe-5-Cl)×1 TFA]
